Measured values from ChEMBL document CHEMBL5550220, “Discovering New Metallo-Deubiquitinase CSN5 Inhibitors by a Non-Catalytic Activity Assay Platform” (J Med Chem, 2024).
Active and inactive are the calls of the source. The rule behind the calls is not given here.

How the values were obtained:
[1] = target: T1, COP9 signalosome complex subunit 5 (Homo sapiens, UniProt Q92905); assay: (§1) Inhibition of N-terminal His6-tagged CSN5 (2 to 257 residues) (unknown origin) transfected in Transetta cells preincubated for 20 mins followed by N-(2-(3-(3',6'-dihydroxy-3-oxo-3H-spiro[isobenzofuran-1,9'-xanthen]-5-yl)thioureido)ethyl)-3-(2-(5-methyl-[1,1'-biphenyl]-2-yl)-1H-pyrrolo[2,3-b]pyridin-3-yl)propanamide probe addition and measured after 1 hr by fluorescence polarization assay
Target sequence in this assay (Q92905 whole entry, the tested form may be a part, one chain of several): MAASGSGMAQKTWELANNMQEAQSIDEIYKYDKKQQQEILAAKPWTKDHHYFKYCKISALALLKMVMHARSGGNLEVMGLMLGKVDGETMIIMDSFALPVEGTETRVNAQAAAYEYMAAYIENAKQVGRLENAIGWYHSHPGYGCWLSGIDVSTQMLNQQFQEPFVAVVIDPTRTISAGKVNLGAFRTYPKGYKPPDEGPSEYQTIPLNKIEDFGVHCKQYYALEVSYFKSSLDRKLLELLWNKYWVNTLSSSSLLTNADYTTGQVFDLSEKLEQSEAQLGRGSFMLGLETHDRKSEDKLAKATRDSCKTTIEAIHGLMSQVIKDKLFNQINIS

[2] = test system: HCT-116; assay: Antiproliferative activity against human HCT-116 cells assessed as inhibition of cell proliferation measured after 3 days by MTT assay; assay type: functional, cell-based; conditions: HCT-116, 72 h
[3] = test system: HepG2; assay: Antiproliferative activity against human HepG2 cells assessed as inhibition of cell proliferation measured after 3 days by MTT assay; assay type: functional, cell-based; conditions: HepG2, 72 h
[4] = target: T1, COP9 signalosome complex subunit 5; assay: Binding affinity to N-terminal His6-tagged CSN5 (2 to 257 residues) (unknown origin) transfected in Transetta cells assessed as decrease in tryptophan fluorescence intensity incubated for 10 mins by fluorescence quenching based microplate reader analysis; assay type: cell-based; conditions: dose 0-100 µM
Target sequence in this assay (Q92905 2-334 limits assumed, one chain of several): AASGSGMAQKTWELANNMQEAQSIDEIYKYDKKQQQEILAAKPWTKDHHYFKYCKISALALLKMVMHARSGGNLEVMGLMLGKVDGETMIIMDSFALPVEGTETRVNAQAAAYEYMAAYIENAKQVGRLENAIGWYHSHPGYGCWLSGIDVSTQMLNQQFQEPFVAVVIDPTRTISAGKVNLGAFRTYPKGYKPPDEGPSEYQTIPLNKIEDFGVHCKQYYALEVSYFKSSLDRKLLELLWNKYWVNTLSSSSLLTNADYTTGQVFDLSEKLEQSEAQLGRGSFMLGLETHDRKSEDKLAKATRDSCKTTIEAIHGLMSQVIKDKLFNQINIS

[5] = target: T1, COP9 signalosome complex subunit 5; assay: as §1, with “based microplate reader” for “polarization”; assay type: cell-based
Target sequence in this assay (Q92905 whole entry, the tested form may be a part, one chain of several): as the sequence (Q92905 whole entry, the tested form may be a part, one chain of several) above

[6] = test system: MDA-MB-231; assay: Antiproliferative activity against human MDA-MB-231 cells assessed as inhibition of cell proliferation measured after 3 days by MTT assay; assay type: functional, cell-based; conditions: MDA-MB-231, 72 h
[7] = test system: A-375; assay: Antiproliferative activity against human A-375 cells assessed as inhibition of cell proliferation measured after 3 days by MTT assay; assay type: functional, cell-based; conditions: A-375, 72 h
[8] = target: T1, COP9 signalosome complex subunit 5; assay: Inhibition of CSN5 in human HCT-116 cells assessed as increase in neddylation of cullin1 at 3 uM by Western blot analysis; assay type: cell-based
Target sequence in this assay (Q92905 2-334 limits assumed, one chain of several): as the sequence (Q92905 2-334 limits assumed, one chain of several) above

[9] = target: T1, COP9 signalosome complex subunit 5; assay: Inhibition of CSN5 in human HepG2 cells assessed as increase in neddylation of cullin1 at 3 uM by Western blot analysis; assay type: cell-based
Target sequence in this assay (Q92905 2-334 limits assumed, one chain of several): as above

[10] = test system: HCT-116; assay: Effect on CSN5 protein level in human HCT-116 cells at 3 uM by Western blot analysis; assay type: functional, cell-based
[11] = test system: HepG2; assay: Effect on CSN5 protein level in human HepG2 cells at 3 uM by Western blot analysis; assay type: functional, cell-based
[12] = test system: HepG2; assay: Effect on PD-L1 level in human HepG2 cells at 0.3 to 3 uM by Western blot analysis; assay type: functional, cell-based; conditions: dose 0.3-3 µM
[13] = target: T1, COP9 signalosome complex subunit 5; assay: Inhibition of CSN5 in human HepG2 cells assessed as increase in neddylation of cullin1 by Western blot analysis; assay type: cell-based; conditions: dose 0.3-3 µM
Target sequence in this assay (Q92905 2-334 limits assumed, one chain of several): as above

[14] = target: T1, COP9 signalosome complex subunit 5; assay: Inhibition of N-terminal His6-tagged CSN5 (2 to 257 residues) (unknown origin) transfected in Transetta cells preincubated with N-(2-(3-(3',6'-dihydroxy-3-oxo-3H-spiro[isobenzofuran-1,9'-xanthen]-5-yl)thioureido)ethyl)-3-(2-(5-methyl-[1,1'-biphenyl]-2-yl)-1H-pyrrolo[2,3-b]pyridin-3-yl)propanamide probe followed by compound addition by fluorescence based microplate reader assay; assay type: cell-based
Target sequence in this assay (Q92905 2-334 limits assumed, one chain of several): as above

[15] = target: T1, COP9 signalosome complex subunit 5; conditions: dose 50.0 µM
Target sequence in this assay (Q92905 2-334 limits assumed, one chain of several): as above
Description: Thermal stabilization of N-terminal His6-tagged CSN5 (2 to 257 residues) (unknown origin) transfected in Transetta cells assessed as change in melting temperature at 50 uM by SYPRO orange dye based thermal shift assay

[16] = target: T1, COP9 signalosome complex subunit 5; assay: Binding affinity to N-terminal His6-tagged Zn-II deficient CSN5 (2 to 257 residues) (unknown origin) transfected in Transetta cells assessed as tryptophan fluorescence change at 0 to 100 uM incubated for 10 mins by fluorescence quenching based microplate reader analysis; assay type: cell-based; conditions: dose 0-100 µM
[17] = test system: HCT-116; assay: Upregulation of PD-L1 level in human HCT-116 cells at 3 uM by Western blot analysis; assay type: functional, cell-based
[18] = test system: HCT-116; assay: Downregulation of PD-L1 protein expression in human HCT-116 cells at 30 uM by Western blot analysis; assay type: functional, cell-based
[19] = target: T1, COP9 signalosome complex subunit 5; assay: Inhibition of CSN5 in human HCT-116 cells assessed as increase in NEDD8-Cul1 level by Western blot analysis; assay type: cell-based; conditions: dose 3-30 µM
[20] = test system: MDA-MB-231; assay: Downregulation of PD-L1 protein expression in human MDA-MB-231 cells at 3 to 30 uM by Western blot analysis; assay type: functional, cell-based; conditions: dose 3-30 µM
[21] = target: T1, COP9 signalosome complex subunit 5; assay: Inhibition of CSN5 in human MDA-MB-231 cells assessed as increase in NEDD8-Cul1 level by Western blot analysis; assay type: cell-based; conditions: dose 3-30 µM
[22] = test system: HCT-116; assay: Upregulation of PD-L1 protein expression in human HCT-116 cells at 30 uM by Western blot analysis; assay type: functional, cell-based
[23] = test system: HCT-116; assay: Upregulation of PD-L1 level in human HCT-116 cells at 30 uM by Western blot analysis; assay type: functional, cell-based

| Structure (SMILES) | IC50 [1] [µM] | IC50 [2] [µM] | IC50 [3] [µM] | IC50 [5] [µM] | IC50 [6] [µM] | IC50 [7] [µM] | other results |
| --- | --- | --- | --- | --- | --- | --- | --- |
| CC(C)c1ccc(CC(C)c2sc(N)nc2C(=O)O)cc1 (stereo unspecified) | 13.5 | 16.3 | 37.3 | 14.9 | 14 |  | Activity [4]: Dose-Dependent Effect |
| Cc1ccc(CCc2sc(N)nc2C(=O)O)o1 | 188 |  |  | 163 |  |  |  |
| O=C1C=CC(=O)c2c(O)ccc(O)c21 [NAPHTHAZALIN] | 0.17 | 1.04 | 4.97 | 0.91 |  | 8.85 |  |
| CC(C)(C)c1ccc(Cc2sc(N)nc2C(=O)O)cc1 | 92.1 |  |  | 83.2 |  |  |  |
| CC(C)=CC[C@@H](O)C1=CC(=O)c2c(O)ccc(O)c2C1=O [SHIKONIN] | 0.19 | 0.52 | 2.96 | 0.41 |  | 0.7 | inhibition [8]: Active; inhibition [9]: Active; Activity [10]: inactive; Activity [11]: inactive; Activity [12]: inactive; Activity [4]: Dose-Dependent Effect; inhibition [13]: Dose-Dependent Effect; inhibition [14]: Active; ΔTm [15]: 1 °C; Activity [16]: inactive; Activity [17]: Active |
| CC(C)Cc1sc(N)nc1C(=O)O | > 300 |  |  | > 300 |  |  |  |
| Nc1nc(C(=O)O)c(CCc2ccc(Br)cc2)s1 | 65.5 | 55.6 | > 100 | 64.6 | 34.1 |  |  |
| Nc1nc(C(=O)O)c(CCc2ccc(Cl)cc2Cl)s1 | 41.7 | 56.5 | > 100 | 41.7 | > 100 |  |  |
| CC(C)=CCCC1=CC(=O)c2c(O)ccc(O)c2C1=O [DEOXYSHIKONIN] | 2.51 | 15.5 | 10.5 | 4.81 |  | 6.83 | inhibition [8]: Active; inhibition [9]: Active; Activity [10]: inactive; Activity [11]: inactive; Activity [4]: Dose-Dependent Effect; Activity [17]: inactive |
| CC(C)=CC[C@H](O)C1=CC(=O)c2c(O)ccc(O)c2C1=O [ALKANNIN] | 0.27 | 0.83 | 4.86 | 0.8 |  | 1.42 | ΔTm [15]: 1 °C |
| CC(C)=CC[C@@H](OC(=O)C(C)C)C1=CC(=O)c2c(O)ccc(O)c2C1=O [ISOBUTYLSHIKONIN] | 0.6 | 1.73 | 8.73 | 1.17 |  | 1.71 |  |
| CC(C)c1ccc(Cc2sc(N)nc2C(=O)O)cc1 | 111 |  |  | 80.1 |  |  |  |
| CC(C)(C)c1ccc(CCc2sc(N)nc2C(=O)O)cc1 | 19.1 | 52 | > 100 | 29.8 | 52.5 |  |  |
| CCCCc1sc(N)nc1C(=O)O | > 300 |  |  | > 300 |  |  |  |
| CC(=O)O[C@H](CC=C(C)C)C1=CC(=O)c2c(O)ccc(O)c2C1=O [ACETYLSHIKONIN] | 0.43 | 3.56 | 6.48 | 1.07 |  | 1.91 |  |
| COc1ccc2cc([C@@H](C)c3sc(N)nc3C(=O)O)ccc2c1 | 26.9 | 40.9 | 52.1 | 16.8 | 68.3 |  | Activity [18]: Active; inhibition [19]: Dose-Dependent Effect; Activity [20]: Active; inhibition [21]: Dose-Dependent Effect; Activity [4]: Dose-Dependent Effect; inhibition [14]: Active |
| Cc1ccc(-c2[nH]c3ncccc3c2CCC(=O)N2CCOC[C@H]2c2nc3ccccc3[nH]2)c(-c2ccccc2)c1 |  |  |  |  |  |  | Activity [22]: Active; Activity [23]: Active |
| CC(Cc1ccc(C(C)(C)C)cc1)c1sc(N)nc1C(=O)O (stereo unspecified) | 12.6 | 24.1 | 39.1 | 19 | 22.8 |  | inhibition [19]: Dose-Dependent Effect; inhibition [21]: Dose-Dependent Effect; Activity [4]: Dose-Dependent Effect; inhibition [14]: Active |
| Nc1nc(C(=O)O)c(CCc2cccc3ccccc23)s1 | 30.3 | 17.7 | 30.8 | 28.3 | 22.4 |  |  |
